Laboratory results: patent publication US7943611B2, “Imidazo[1,2-A]pyridin-3-yl-acetic acid hydrazides, processes, for their preparation and pharmaceutical uses thereof” (Ferrer International, S.A., priority 2006, dated 2011)

Tests used:
[1] = system: spontaneous motor activity in mice; assay: In vivo predictive sedation-hypnosis test (spontaneous motor activity, traveled distance); design: species or system mouse; settings: for % Motor activity inhibition: male CD1 mice, single equimolecular intraperitoneal dose, traveled distance vs control over 30 min (first 5 min discarded); for ID50 inhibiting spontaneous motor activity: dose-response curve, intraperitoneal
Description: b) In Vivo Determination of Predictive Sedative-Hypnotic Action
The in vivo effects of these compounds were assessed by a predictive sedation-hypnosis test in mice (D. J. Sanger et al., Eur. J. Pharmacol., 313, 35-42, 1996; and G. Griebel et al., Psychopharmacology, 146, 205-213, 1999).
Groups of 5-8 male CD1 mice, weighing 22-26 g at the time of test, were used. The test compounds were administered in single equimolecular intraperitoneal doses, suspended in 0.25% agar with one drop of Tween in a volume of 10 mL/kg. Control animals received the vehicle alone. Using a Smart System (Panlab, S. L., Spain) the traveled distance in cm was recorded for each mouse at 5 min intervals during a period of 30 minutes after dosing. The inhibition percentage traveled distance of treated animals versus control animals (the first 5 min were discarded) was calculated.

[2] = molecular target: T1, α1-subunit of the GABAA receptor (Rattus norvegicus, UniProt P62813); assay: Ligand-binding assay, radiolabeled flumazenil competition, cerebellum membranes; settings: 1 nM radiolabeled flumazenil; for inhibition at 10 µM: 10^−5 M test compound, read-out: % Inhib 10^−5M (affinity for the α1-subunit of the GABAA receptor); for inhibition at 0.1 µM: 10^−7 M test compound, read-out: % Inhib 10^−7M (affinity for the α1-subunit of the GABAA receptor)
T1 construct: the cerebellum (tissue that mostly contains α1-GABAA receptor); from tissue; host or cells: rat cerebellum membranes
Description: (§1) a) Ligand-Binding Assays. Determination of the Affinity of Test Compounds for α1- and α2-GABAA Receptor
(§2) Male Sprague-Dawley rats weighing 200-250 g at the time of experiment were used. After decapitation of the animal, the cerebellum (tissue that mostly contains α1-GABAA receptor) and spinal cord (tissue that mostly contains α2-GABAA receptor) were removed. The membranes were prepared according to the method by J. Lameh et al. (Prog. Neuro-Psychopharmacol. Biol. Psychiatry, 24, 979-991, 2000) and H. Noguchi et al. (Eur J Pharm, 434, 21-28, 2002) with slight modifications. Once the tissues weighed, they were suspended in 50 mM Tris.HCl (pH 7.4), 1:40 (v/v), or sucrose 0.32 M in the case of spinal cord, homogenized and then centrifuged at 20,000 g for 10 min at 7° C. The resulting pellet was resuspended under the same conditions and centrifuged again. The pellet was finally resuspended on a minimum volume and kept at −80° C. overnight. On the next day, the process was repeated until the final pellet was resuspended at a ratio of 1:10 (v/v) in the case of cerebellum and at a ratio of 1:5 (v/v) in the case of spinal cord.
(§3) Affinity was determined by competitive tests using radiolabeled flumazenil as ligand. The tests were performed according to the methods described by S. Arbilla et al. (Eur. J. Pharmacol., 130, 257-263, 1986); and Y. Wu et al. (Eur. J. Pharmacol., 278, 125-132, 1995) using 96-well microtiter plates. The membranes containing the study receptors, flumazenil (radiolabeling at a final concentration of 1 nM) and ascending concentrations of test compounds (in a total volume of 230 μl in 50 mM [pH 7.4] Tris.HCl buffer) were incubated. Simultaneously, the membranes were only incubated with the radiolabeled flumazenil (total binding, 100%) and in the presence of an elevated concentration of unradiolabeled flumazenil (non-specific binding, % estimation of radiolabeled ligand). The reactions started on adding the radiolabeled ligand followed by incubation for 60 minutes at 4° C. At the end of the incubation period, 200 μl of reaction were transferred to a multiscreen plate (Millipore) and filtered using a vacuum manifold and then washed three times with cold test buffer. The multiscreen plates were equipped with a GF/B filter that retained the membranes containing the receptors and the radiolabeled ligand which had been bound to the receptors. After washing, the plates were left till dry. Once dried, scintillation liquid was added and left under stirring overnight. The next day the plates were counted using a Perkin-Elmer Microbeta scintillation counter.
(§4) For analysis of the results the percentage of specific binding for every concentration of test compound was calculated as follows: % specific binding=(X−N/T−N)×100 where, • X: amount of bound ligand for every concentration of compound. • T: total binding, maximum amount bound to the radiolabeled ligand. • N: non-specific binding, amount of radiolabeled ligand bound in a non-specific way irrespective of the receptor used.
(§5) Every concentrations of compound were tested in triplicate and their mean values were used to determine the experimental values of % specific binding versus the concentration of compound. Affinity data are expressed as % inhibition at 10^−5 M and 10^−7 M concentrations.

[3] = system: α2-subunit of the GABAA receptor; assay: Ligand-binding assay, radiolabeled flumazenil competition, spinal cord membranes; settings: rat spinal cord membranes, 1 nM radiolabeled flumazenil; for % Inhib 10^−5M (affinity for the α2-subunit of the GABAA receptor): 10^−5 M test compound; for % Inhib 10^−7M (affinity for the α2-subunit of the GABAA receptor): 10^−7 M test compound
Description: as §1, §2, §3, §4, §5

Row | Compound | % Motor activity inhibition [1] [%] | ID50 inhibiting spontaneous motor activity ([1]; mice) [µmol/kg] | fold greater potency in inhibiting spontaneous motor activity compared to zolpidem ([1]; mice, from ID50 values) [fold] | inhibition at 10 µM [2] [%] | inhibition at 0.1 µM [2] [%] | % Inhib 10^−5M (affinity for the α2-subunit of the GABAA receptor) [3] [%] | % Inhib 10^−7M (affinity for the α2-subunit of the GABAA receptor) [3] [%]
1 | Cc1ccc(-c2nc3ccc(C)cn3c2CC(=O)NN)cc1 [Example 3, (6-Methyl-2-p-tolyl-imidazo[1,2-a]pyridin-3-yl)-acetic Acid Hydrazide] | 92.03 | 1.9 | 2 | 98.7 | 55.9 |  | 
2 | Cc1ccc(-c2nc3ccc(C)cn3c2CC(=O)N(C)N)cc1 [Example 6, (6-Methyl-2-p-tolyl-imidazo[1,2-a]pyridin-3-yl)-acetic Acid N-methyl-hydrazide] | 93.42 |  |  | 99 | 59.1 | 71.6 | 2.0
3 | Cc1ccc(-c2nc3ccc(C)cn3c2CC(=O)N/N=C/c2ccc(Cl)cc2)cc1 [Example 7, (6-Methyl-2-p-tolyl-imidazo[1,2-a]pyridin-3-yl)-acetic Acid (4-chlorobenzylidene)-hydrazide] | 25.05 |  |  | 46.1 | 0.9 |  | 
4 | C/C=N/NC(=O)Cc1c(-c2ccc(C)cc2)nc2ccc(C)cn12 [Example 8, (6-Methyl-2-p-tolyl-imidazo[1,2-a]pyridin-3-yl)-acetic Acid Ethylidene-hydrazide] | 90.16 |  |  | 97.6 | 25.2 | 88.6 | 11.2
5 | CC(C)=NNC(=O)Cc1c(-c2ccc(C)cc2)nc2ccc(C)cn12 [Example 9, (6-Methyl-2-p-tolyl-imidazo[1,2-a]pyridin-3-yl)-acetic acid isopropylidene-hydrazide] | 92.03 |  |  | 98.5 | 24.2 | 86.6 | 21.9
6 | Cc1ccc(-c2nc3ccc(C)cn3c2CC(=O)N(C)C)cc1 [Zolpidem, N,N,6-trimethyl-2-p-tolylimidazo[1,2-a]pyridine-3-acetamide, reference compound] | 91.70 | 4.4 |  | 73.6 |  | 74.1 | 19.9
